Entries after “also recorded” stand apart in the source; their conditions may differ.
Columns and labels:
pre-LTP in ACC = pre-LTP in ACC cortical slices; format: cell-based, adult mice; conditions: 25 μM (SQ22356 'same dose'; NB011 concentration not given), FIG. 1B/FIG. 2
[1] = system: morphine tolerance in mice; assay: Morphine tolerance after repeated morphine injections (hotplate, tail-flick); conditions: mouse, in vivo
[2] = system: morphine-induced place preference in mice; assay: Conditioned place preference (CPP) to morphine; format: in vivo
[3] = system: anxiety caused by nerve injury in mice; assay: Anxiety behavior test (EPM) after nerve injury; format: in vivo; conditions: FIG. 6
[4] = system: behavioral itching (scratching) response in mice; assay: Itching response to intradermal compound 48/80; format: in vivo; conditions: compound 48/80 100 μg/50 μl intradermal, FIG. 7
post-LTP in ACC [5] = conditions: recent report (Chen et al., 2014); cited from earlier work
[6] = biological target: adenylyl cyclase subtype 8 (AC8) (Homo sapiens, UniProt P40145); assay: cAMP assay in AC8 expressing cell line (biochemical screening for AC1 & 8 inhibitors); format: cell-based; conditions: for inhibition of AC8 activity (in words): 100 μM; for inhibition at 100 µM: read-out: Percent Inhibition AC8
adenylyl cyclase subtype 8 (AC8), sequence (P40145 whole entry, species assumed): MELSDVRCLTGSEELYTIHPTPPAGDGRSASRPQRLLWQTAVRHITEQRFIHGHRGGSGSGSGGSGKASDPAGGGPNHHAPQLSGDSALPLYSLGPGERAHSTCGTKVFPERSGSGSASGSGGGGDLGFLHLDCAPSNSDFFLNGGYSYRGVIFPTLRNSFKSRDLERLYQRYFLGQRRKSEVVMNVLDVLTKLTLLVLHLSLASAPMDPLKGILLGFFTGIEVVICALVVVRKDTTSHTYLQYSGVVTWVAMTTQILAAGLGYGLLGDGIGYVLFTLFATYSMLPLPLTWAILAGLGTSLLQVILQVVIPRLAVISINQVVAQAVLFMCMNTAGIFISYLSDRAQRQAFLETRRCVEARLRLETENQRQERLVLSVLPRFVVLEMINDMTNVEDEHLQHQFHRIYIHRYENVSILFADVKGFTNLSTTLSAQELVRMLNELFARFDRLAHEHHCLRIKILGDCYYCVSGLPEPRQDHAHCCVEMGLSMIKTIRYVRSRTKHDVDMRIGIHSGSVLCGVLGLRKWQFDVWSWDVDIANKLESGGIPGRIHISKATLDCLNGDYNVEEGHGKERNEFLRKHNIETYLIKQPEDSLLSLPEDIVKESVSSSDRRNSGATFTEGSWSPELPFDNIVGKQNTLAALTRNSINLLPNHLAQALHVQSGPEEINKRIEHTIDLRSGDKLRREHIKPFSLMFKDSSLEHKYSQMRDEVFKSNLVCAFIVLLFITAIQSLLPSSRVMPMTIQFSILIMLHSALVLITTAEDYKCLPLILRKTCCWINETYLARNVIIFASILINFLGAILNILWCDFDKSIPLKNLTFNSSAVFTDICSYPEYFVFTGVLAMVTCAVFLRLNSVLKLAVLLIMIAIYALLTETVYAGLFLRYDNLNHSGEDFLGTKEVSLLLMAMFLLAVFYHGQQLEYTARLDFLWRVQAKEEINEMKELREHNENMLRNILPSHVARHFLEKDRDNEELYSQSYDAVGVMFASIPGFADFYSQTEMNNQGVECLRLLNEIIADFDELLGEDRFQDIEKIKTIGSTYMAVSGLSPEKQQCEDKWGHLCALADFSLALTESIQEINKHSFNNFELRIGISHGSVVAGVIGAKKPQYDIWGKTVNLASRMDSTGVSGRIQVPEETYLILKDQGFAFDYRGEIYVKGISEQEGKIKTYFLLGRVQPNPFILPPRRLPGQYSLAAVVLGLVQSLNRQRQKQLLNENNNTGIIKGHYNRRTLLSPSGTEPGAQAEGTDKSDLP

[7] = biological target: adenylyl cyclase subtype 1 (AC1) (Homo sapiens, UniProt Q08828); assay: cAMP assay in AC1 expressing cell line (biochemical screening for AC1 & 8 inhibitors); format: cell-based; conditions: for inhibition of AC1 activity (in words): 100 μM; for inhibition at 100 µM: read-out: Percent Inhibition AC1
adenylyl cyclase subtype 1 (AC1), sequence (Q08828 whole entry): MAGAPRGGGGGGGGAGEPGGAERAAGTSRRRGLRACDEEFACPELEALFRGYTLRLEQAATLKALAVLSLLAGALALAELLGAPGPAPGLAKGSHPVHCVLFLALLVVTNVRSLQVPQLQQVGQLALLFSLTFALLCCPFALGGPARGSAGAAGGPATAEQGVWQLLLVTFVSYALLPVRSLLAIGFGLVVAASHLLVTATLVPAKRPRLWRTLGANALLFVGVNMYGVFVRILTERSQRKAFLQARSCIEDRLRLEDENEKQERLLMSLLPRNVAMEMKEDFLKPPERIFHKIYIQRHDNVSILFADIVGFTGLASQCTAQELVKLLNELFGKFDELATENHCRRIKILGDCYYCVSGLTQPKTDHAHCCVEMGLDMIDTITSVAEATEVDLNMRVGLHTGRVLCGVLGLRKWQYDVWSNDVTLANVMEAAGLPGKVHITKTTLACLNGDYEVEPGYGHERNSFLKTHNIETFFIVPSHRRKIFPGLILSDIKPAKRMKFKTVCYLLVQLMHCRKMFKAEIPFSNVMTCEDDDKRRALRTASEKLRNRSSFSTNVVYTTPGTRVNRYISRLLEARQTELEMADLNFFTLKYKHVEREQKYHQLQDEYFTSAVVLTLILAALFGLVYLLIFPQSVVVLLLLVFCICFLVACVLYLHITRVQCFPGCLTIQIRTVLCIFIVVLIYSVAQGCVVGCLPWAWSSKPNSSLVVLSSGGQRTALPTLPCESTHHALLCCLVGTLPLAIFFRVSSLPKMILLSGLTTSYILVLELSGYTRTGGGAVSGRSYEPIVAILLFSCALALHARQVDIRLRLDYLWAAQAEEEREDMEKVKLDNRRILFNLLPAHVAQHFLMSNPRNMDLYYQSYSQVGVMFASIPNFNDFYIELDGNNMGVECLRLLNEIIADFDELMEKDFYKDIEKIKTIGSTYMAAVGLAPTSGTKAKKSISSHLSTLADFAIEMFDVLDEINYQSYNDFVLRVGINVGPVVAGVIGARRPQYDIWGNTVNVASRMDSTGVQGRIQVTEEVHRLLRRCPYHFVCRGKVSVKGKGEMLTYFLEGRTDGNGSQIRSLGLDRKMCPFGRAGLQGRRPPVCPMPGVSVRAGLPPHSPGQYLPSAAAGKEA

post-LTP in ACC [8] = assay: post-LTP (ACC LTP) in ACC cortical slices; format: cell-based; conditions: 25 μM, ACC slices of adult mice, FIG. 1A

NCC1(CC(=O)O)CCCCC1 [GABApentin, reference compound]
induction of pre-LTP (pre-LTP in ACC): not blocked | morphine tolerance / morphine analgesic effect [1]: did not produce a significant effect; also recorded: did not produce any significant effect | morphine-induced place preference ([2]; 100 mg/kg, morphine 10 mg/kg, after 9 days, FIG. 5): did not produce any significant effect | anxiety caused by nerve injury (EPM test) ([3]; 100 mg/kg i.p.): Neither GABApentin (100 mg/kg, i.p.) nor SQ22356 (5 mg/kg) significantly reduced; also recorded: no significant effect | total scratching (itching) responses ([4]; 100 mg/kg): neither GABApentin nor SQ22356 produce any significant effect | total scratching (itching) responses ([4]; 100 mg/kg, listed as GABApention): did not cause a significant reduction | effect on ACC LTP (post-LTP in ACC [5]): does not affect

Nc1ncnc2c1ncn2CCNCCCCCO [NB001, 5-((2-(6-amino-9H-purin-9-yl)ethyl)amino)pentane-1-ol]
morphine-induced place preference ([2]; mouse, in vivo): significantly less time; also recorded: significant reduce; also recorded: expected effect was not produced

Cc1ccc(OCCn2c(S)nc3c(N)ncnc32)cc1 [NB010]
inhibition of AC8 activity (in words) [6]: significant inhibition | inhibition at 100 µM [6]: 88 ± 2% | inhibition of AC1 activity (in words) [7]: significant inhibition | inhibition at 100 µM [7]: 96 ± 4% | induction of post-LTP (ACC LTP) (post-LTP in ACC [8]): blocked | induction of pre-LTP (pre-LTP in ACC): inhibit; also recorded: blocked | morphine tolerance / morphine analgesic effect [1]: significant greater analgesic effects; also recorded: reduced | morphine tolerance / morphine analgesic effect ([1]; 1 mg/kg): no significant effect | anxiety caused by nerve injury (EPM test) ([3]; 5 mg/kg, 7 days after injury): significant reduction; also recorded: reduced anxiety | anxiety caused by nerve injury (EPM test) ([3]; low dose 1 mg/kg, 1 mg/kg): did not significantly decrease; also recorded: neither NB010 nor NB011 affected anxiety | total scratching (itching) responses ([4]; pretreatment (dose not given)): significantly reduced

c1nc(N2CCOCC2)c2nc[nH]c2n1 [NB011, 4-(9H-purin-6-yl)morpholine]
inhibition of AC8 activity (in words) [6]: significant inhibition | inhibition at 100 µM [6]: 86 ± 2% | inhibition of AC1 activity (in words) [7]: significant inhibition | inhibition at 100 µM [7]: 91 ± 3% | induction of pre-LTP (pre-LTP in ACC): inhibit; also recorded: decrease | morphine tolerance / morphine analgesic effect [1]: significant greater analgesic effects; also recorded: reduced | morphine tolerance / morphine analgesic effect ([1]; 1 mg/kg): no significant effect | morphine-induced place preference ([2]; dose reduced to 1 mg/kg (not shown in figure)): expected effect was not produced | anxiety caused by nerve injury (EPM test) ([3]; 5 mg/kg, 7 days after injury): significant reduction; also recorded: reduced anxiety | anxiety caused by nerve injury (EPM test) ([3]; low dose 1 mg/kg, 1 mg/kg): neither NB010 nor NB011 affected anxiety | total scratching (itching) responses ([4]; pretreatment (dose not given)): significantly reduced

Nc1ncnc2c1ncn2C1CCCO1 (centres unmarked) [SQ22356, reference compound]
induction of pre-LTP (pre-LTP in ACC): did not cause a significant decrease | morphine tolerance / morphine analgesic effect [1]: no significant effect; also recorded: did not produce any significant effect | morphine-induced place preference ([2]; 5 mg/kg, morphine 10 mg/kg, after 9 days, FIG. 5): did not produce any inhibition | anxiety caused by nerve injury (EPM test) ([3]; 5 mg/kg, 7 days after injury): Neither GABApentin (100 mg/kg, i.p.) nor SQ22356 (5 mg/kg) significantly reduced; also recorded: no significant effect | total scratching (itching) responses ([4]; 5 mg/kg): did not show significantly reduction

Reference: patent US11541060B2, “Pharmaceutical compositions for treating pain” (FOREVER CHEER INTERNATIONAL LIMITED, priority 2017, dated 2023)
